From ChEMBL document CHEMBL1123336, “Selective monoamine oxidase inhibitors. 3. Cyclic compounds related to 4-aminophenethylamine. Preparation and neuron-selective action of some 5-(2-aminoethyl)-2,3-dihydroindoles” (J Med Chem, 1986) come the findings set out here.

In assay [1] the target is Sodium-dependent dopamine transporter (Rattus norvegicus, UniProt P23977). As to the kind of experiment: In […] inhibition of DA uptake at dopamine uptake site. The class given is functional.
The target in assay [2] is Norepinephrine transporter (Rattus norvegicus, UniProt Q9WTR4). As to the kind of experiment: In vitro inhibition of NE uptake at NE uptake site. It is filed as functional.
Chain of Norepinephrine transporter (Q9WTR4 whole entry): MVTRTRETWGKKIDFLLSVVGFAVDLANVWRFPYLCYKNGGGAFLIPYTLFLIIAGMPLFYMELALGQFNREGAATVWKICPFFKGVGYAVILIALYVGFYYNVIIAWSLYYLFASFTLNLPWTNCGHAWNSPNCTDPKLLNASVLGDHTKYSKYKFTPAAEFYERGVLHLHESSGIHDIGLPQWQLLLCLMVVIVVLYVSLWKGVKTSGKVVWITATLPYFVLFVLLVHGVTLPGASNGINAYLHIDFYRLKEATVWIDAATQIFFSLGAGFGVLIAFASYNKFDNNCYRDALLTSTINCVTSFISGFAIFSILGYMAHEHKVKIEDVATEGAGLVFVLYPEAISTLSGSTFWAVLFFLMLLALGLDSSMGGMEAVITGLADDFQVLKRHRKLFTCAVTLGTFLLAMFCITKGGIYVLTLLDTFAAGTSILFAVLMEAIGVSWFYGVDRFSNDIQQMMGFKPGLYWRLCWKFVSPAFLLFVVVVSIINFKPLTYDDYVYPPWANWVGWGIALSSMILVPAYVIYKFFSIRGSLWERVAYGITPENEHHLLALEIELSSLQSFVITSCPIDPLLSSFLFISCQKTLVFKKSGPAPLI
For assay [3], the species on record is Rattus norvegicus. As to the kind of experiment: The lowest dose that release 5-HT causing a serotonin syndrome in rat. The class given is functional.
For assay [4], the species on record is Rattus norvegicus. As to the kind of experiment: The lowest dose that release DA causing increased motor activity in rat. It is filed as functional.
Assay [5] is filed under the species Rattus norvegicus. As to the kind of experiment: The lowest dose that release NE causing reversal of ptosis in rat. The class given is functional.
The target in assay [6] is T1, Monoamine oxidase (Rattus norvegicus, UniProt P19643+P21396).
T1 sequence (P19643 whole entry): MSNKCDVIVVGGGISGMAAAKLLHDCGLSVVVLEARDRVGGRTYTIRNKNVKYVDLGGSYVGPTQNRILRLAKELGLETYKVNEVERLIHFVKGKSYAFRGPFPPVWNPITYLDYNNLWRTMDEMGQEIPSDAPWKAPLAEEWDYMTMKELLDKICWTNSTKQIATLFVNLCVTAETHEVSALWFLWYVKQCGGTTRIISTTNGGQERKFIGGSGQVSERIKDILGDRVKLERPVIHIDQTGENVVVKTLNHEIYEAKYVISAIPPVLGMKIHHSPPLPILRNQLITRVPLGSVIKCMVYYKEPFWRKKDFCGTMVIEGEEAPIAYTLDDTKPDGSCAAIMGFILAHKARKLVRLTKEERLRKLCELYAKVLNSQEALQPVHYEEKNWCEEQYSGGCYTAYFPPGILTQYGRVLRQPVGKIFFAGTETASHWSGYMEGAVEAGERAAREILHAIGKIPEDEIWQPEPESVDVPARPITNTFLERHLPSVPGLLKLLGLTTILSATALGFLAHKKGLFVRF
T1 sequence (P21396 whole entry): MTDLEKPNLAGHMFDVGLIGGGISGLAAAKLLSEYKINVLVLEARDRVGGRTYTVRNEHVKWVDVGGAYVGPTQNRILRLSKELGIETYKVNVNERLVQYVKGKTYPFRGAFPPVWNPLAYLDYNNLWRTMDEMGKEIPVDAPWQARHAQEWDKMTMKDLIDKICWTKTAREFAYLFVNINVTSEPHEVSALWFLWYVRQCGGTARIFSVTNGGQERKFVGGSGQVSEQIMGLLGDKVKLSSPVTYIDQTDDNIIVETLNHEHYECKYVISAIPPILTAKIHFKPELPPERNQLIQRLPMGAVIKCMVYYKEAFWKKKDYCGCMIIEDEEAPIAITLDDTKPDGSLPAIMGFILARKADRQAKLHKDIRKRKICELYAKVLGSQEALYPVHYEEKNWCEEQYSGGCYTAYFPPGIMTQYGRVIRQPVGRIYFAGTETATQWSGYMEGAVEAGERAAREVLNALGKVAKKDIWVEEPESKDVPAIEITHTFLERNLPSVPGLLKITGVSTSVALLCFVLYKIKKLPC
As to the kind of experiment: Compound was tested in vitro for inhibition of MAO by using [14C]phenylethylamine as substrate in rat brain mitochondrial preparation. The class given is tissue-based.

The target of assay [7] is T1, Monoamine oxidase. As to the kind of experiment: Compound was tested in vitro for inhibition of MAO by using [14C]5-HT as substrate in rat brain mitochondrial preparation. It is filed as tissue-based.
Assay [8] concerns Rattus norvegicus. As to the kind of experiment: Compound (po) was tested in vivo for inhibition of MAO activity remaining inside (N) 5-HT synaptosomes of rat hypothalamus. It is filed as functional.
The test system of assay [9] is Rattus norvegicus. As to the kind of experiment: Compound (po) was tested in vivo for inhibition of MAO activity remaining inside (N) DA synaptosomes of rat striatum. The class given is functional.
For assay [10], the system named is Rattus norvegicus. As to the kind of experiment: Compound (po) was tested in vivo for inhibition of MAO activity remaining inside (N) NE synaptosomes of rat hypothalamus. The class given is functional.
The subject of assay [11] is Rattus norvegicus. As to the kind of experiment: (§1) Compound (po) was tested in vivo for inhibition of MAO activity remaining outside (EN) DA synaptosomes of rat striatum. It is filed as functional.
Assay [12] has as its target Sodium-dependent serotonin transporter (Rattus norvegicus, UniProt P31652). As to the kind of experiment: Compound was tested in vitro for inhibition of Serotonin transporter uptake at serotonin uptake site.
Assay [13] can be described thus: Ratio of the inhibition of MAO using [14C]-PEA and [14C]5-HT in rat brain. It is filed as tissue-based.
A short description of assay [14]: Ratio of inhibition of MAO activity remaining outside (EN) and inside (N) synaptosomes. The following applies: Brain. The class given is subcellular.
The test system of assay [15] is Rattus norvegicus. As to the kind of experiment: Compound (po) was tested in vivo for inhibition of MAO activity remaining outside (EN) 5-HT synaptosomes of rat hypothalamus. The class given is functional.
Assay [16] can be described thus: as §1. It is filed as functional.
The target of assay [17] is T1, Monoamine oxidase. As to the kind of experiment: Compound was tested in vitro for inhibition of Monoamino oxidase by using [14C]phenylethylamine as substrate in rat brain mitochondrial preparation. It is filed as tissue-based.
Assay [18] deals with T1, Monoamine oxidase. As to the kind of experiment: Compound was tested in vitro for inhibition of Monoamino oxidase by using [14C]5-HT as substrate in rat brain mitochondrial preparation. The class given is tissue-based.
Assay [19] concerns Rattus norvegicus. As to the kind of experiment: Compound (po) was tested in vivo for inhibition of Monoamino oxidase activity remaining inside (N) 5-HT synaptosomes of rat hypothalamus. The class given is functional.

Where “and” joins values, the source holds several entries; their conditions need not be identical. Equal entries are not always repeated.

Chain of Sodium-dependent serotonin transporter (P31652 whole entry): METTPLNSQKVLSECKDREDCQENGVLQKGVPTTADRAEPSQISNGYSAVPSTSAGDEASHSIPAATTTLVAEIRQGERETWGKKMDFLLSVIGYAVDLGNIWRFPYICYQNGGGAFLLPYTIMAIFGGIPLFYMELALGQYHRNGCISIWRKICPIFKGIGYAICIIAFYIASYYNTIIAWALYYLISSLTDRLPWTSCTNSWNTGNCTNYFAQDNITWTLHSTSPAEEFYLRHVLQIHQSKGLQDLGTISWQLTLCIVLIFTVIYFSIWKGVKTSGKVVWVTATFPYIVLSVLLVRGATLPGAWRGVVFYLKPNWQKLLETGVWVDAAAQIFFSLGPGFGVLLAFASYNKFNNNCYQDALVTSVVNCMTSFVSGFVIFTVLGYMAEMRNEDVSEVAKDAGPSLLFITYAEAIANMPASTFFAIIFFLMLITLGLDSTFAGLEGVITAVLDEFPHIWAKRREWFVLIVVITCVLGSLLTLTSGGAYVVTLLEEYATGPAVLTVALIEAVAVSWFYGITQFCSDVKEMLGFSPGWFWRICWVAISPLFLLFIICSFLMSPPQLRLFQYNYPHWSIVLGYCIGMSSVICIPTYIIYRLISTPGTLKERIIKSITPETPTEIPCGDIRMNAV
Chain of Sodium-dependent dopamine transporter (P23977 whole entry): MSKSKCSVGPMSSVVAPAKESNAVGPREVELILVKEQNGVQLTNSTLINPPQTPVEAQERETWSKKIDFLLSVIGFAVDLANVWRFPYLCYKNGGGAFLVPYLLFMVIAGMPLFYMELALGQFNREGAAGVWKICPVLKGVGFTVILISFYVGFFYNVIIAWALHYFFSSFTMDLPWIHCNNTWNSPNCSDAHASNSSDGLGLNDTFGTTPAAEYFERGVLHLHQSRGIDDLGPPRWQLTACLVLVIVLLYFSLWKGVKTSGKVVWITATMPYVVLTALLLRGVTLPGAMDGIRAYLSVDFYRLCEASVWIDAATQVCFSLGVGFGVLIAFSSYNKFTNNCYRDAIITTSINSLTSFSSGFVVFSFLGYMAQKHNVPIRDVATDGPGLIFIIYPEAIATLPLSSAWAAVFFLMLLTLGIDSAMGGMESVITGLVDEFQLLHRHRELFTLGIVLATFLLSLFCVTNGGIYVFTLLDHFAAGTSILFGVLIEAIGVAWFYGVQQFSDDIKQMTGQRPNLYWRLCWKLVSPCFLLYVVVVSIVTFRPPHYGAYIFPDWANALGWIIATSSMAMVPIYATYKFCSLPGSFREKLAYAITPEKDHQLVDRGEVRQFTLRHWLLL

`CCN1CCc2c1ccc(CC(C)N)c2C` (configuration not stated): the IC50 – broadly, the concentration needed to halve the response being measured – in assay [1] is more than 10 µM; in [2], 7.5 µM; against Monoamine oxidase [6], more than 500 µM; against Monoamine oxidase [7], 1.1 µM; in [12], 1.5 µM. Moreover, the ED50 – broadly, the dose at which the effect has come halfway, by size or by number of responders – is 87 µmol/kg in the assay filed under Rattus norvegicus [3]; more than 87 µmol/kg in the assay listed under Rattus norvegicus [4]; more than 87 µmol/kg in the assay filed under Rattus norvegicus [5]; 13 µmol/kg in the assay with Rattus norvegicus [8]; 10 µmol/kg in the assay on Rattus norvegicus [9]; 9 µmol/kg in the assay on Rattus norvegicus [10]. In the assay with Rattus norvegicus [11], the 50% effect level (ED50) was put at a dose of 16 µmol/kg. Moreover, in assay [13], the Ratio is more than 455.
Consider `Cc1cc(N(C)C)ccc1CC(C)N` (configuration not stated), for which the IC50 in assay [1] was more than 10 µM; in assay [2] it was 0.65 µM; at Monoamine oxidase [6], more than 1000 µM; at Monoamine oxidase [7], 0.8 µM; in [12], 0.1 µM. Besides, the 50% effective dose (ED50) in the assay listed under Rattus norvegicus [3] was 7.5 µmol/kg; in the assay filed under Rattus norvegicus [4] it was more than 300 µmol/kg; in the assay filed under Rattus norvegicus [5] it was 15 µmol/kg; with Rattus norvegicus [8] it was 1.1 µmol/kg; in the assay on Rattus norvegicus [9], 3.3 µmol/kg; in the assay on Rattus norvegicus [10] it was 2 µmol/kg. The same compound gave an ED50 with Rattus norvegicus [11] of 4.4 µmol/kg. Also, the Ratio in [13] is more than 1250.
For the compound `CCC(N)Cc1ccc2c(c1Cl)CCN2` (configuration not stated), the IC50 in assay [1] was more than 10 µM; in assay [2] it was 1.6 µM; in assay [12] it was 0.3 µM. In addition, the ED50 in the assay filed under Rattus norvegicus [3] was 28 µmol/kg; in the assay filed under Rattus norvegicus [4], more than 112 µmol/kg; in the assay filed under Rattus norvegicus [5] it was more than 112 µmol/kg; with Rattus norvegicus [8] it was 9.1 µmol/kg; in the assay on Rattus norvegicus [9] it was 12 µmol/kg; in the assay on Rattus norvegicus [10], 11 µmol/kg. The same compound came in with an ED50 in the assay on Rattus norvegicus [11] of 28 µmol/kg. Also, in assay [14], the Ratio was 2 (2×) and 2.3.
Consider `CC(C)(N)Cc1ccc2c(c1)CCN2`, for which the IC50 in assay [1] is more than 10 µM; in [2], 2.7 µM; at Monoamine oxidase [6], 2600 µM; on Monoamine oxidase [7] it was 2.8 µM; in [12], 1.9 µM. Besides, the ED50 was 128 µmol/kg in the assay listed under Rattus norvegicus [3]; more than 256 µmol/kg in the assay listed under Rattus norvegicus [4]; 64 µmol/kg in the assay filed under Rattus norvegicus [5]; 4.4 µmol/kg in the assay on Rattus norvegicus [8]; 8 µmol/kg in the assay on Rattus norvegicus [9]; 12 µmol/kg in the assay on Rattus norvegicus [10]. This compound had an ED50 in the assay with Rattus norvegicus [11] of 36 µmol/kg. Also, the Ratio in assay [13] is 929.
Consider `CC(N)Cc1ccc2c(c1)CCN2` (configuration not stated), for which the IC50 was 3.8 µM in assay [1]; 0.36 µM in assay [2]; more than 100 µM on Monoamine oxidase [6]; 5 µM against Monoamine oxidase [7]; 1.8 µM in assay [12]. The ED50 turned out to be 42 µmol/kg in the assay listed under Rattus norvegicus [3]; 42 µmol/kg in the assay listed under Rattus norvegicus [4]; 17 µmol/kg in the assay listed under Rattus norvegicus [5]; 1.8 µmol/kg with Rattus norvegicus [8]; 0.8 µmol/kg in the assay with Rattus norvegicus [9]; 1.1 µmol/kg in the assay on Rattus norvegicus [10]. This compound also came in with an ED50 in the assay with Rattus norvegicus [11] of 20 µmol/kg. In addition, the Ratio in [13] was more than 20; in [14], > 15 and > 31 and 25.
With `CCN1CCc2cc(CC(C)N)c(C)cc21` (configuration not stated), the half-maximal inhibitory concentration (IC50) in assay [1] is more than 10 µM; in assay [2] it was 2.5 µM; against Monoamine oxidase [6] it was 77 µM; at Monoamine oxidase [7], 0.33 µM; in assay [12], 2.2 µM. In addition, the ED50 in the assay filed under Rattus norvegicus [3] is more than 87 µmol/kg; in the assay listed under Rattus norvegicus [4], more than 87 µmol/kg; in the assay filed under Rattus norvegicus [5], 87 µmol/kg; with Rattus norvegicus [8] it was more than 27 µmol/kg; with Rattus norvegicus [9], 12 µmol/kg; in the assay with Rattus norvegicus [10], 17 µmol/kg. In addition, the ED50 with Rattus norvegicus [15] is more than 27 µmol/kg; in assay [16] it was 17 µmol/kg. The Ratio is 233 in [13]; > 3 and 1.4 in assay [14].
On to `Cc1c(CC(C)N)ccc2c1CCN2` (configuration not stated), for which the IC50 is 9 µM in assay [1]; 0.75 µM in assay [2]; more than 500 µM against Monoamine oxidase [6]; 0.8 µM against Monoamine oxidase [7]; 0.38 µM in [12]. Also, the median effective dose (ED50) in the assay listed under Rattus norvegicus [3] is 64 µmol/kg; in the assay filed under Rattus norvegicus [4], more than 128 µmol/kg; in the assay listed under Rattus norvegicus [5], 128 µmol/kg; in the assay with Rattus norvegicus [8] it was 0.8 µmol/kg; with Rattus norvegicus [9], 4.6 µmol/kg; in the assay on Rattus norvegicus [10], 1.1 µmol/kg. Moreover, it took a dose of 13 µmol/kg to reach the 50% effect level with Rattus norvegicus [11] (ED50). For the same compound, the Ratio in assay [13] was more than 625.
`Cc1cc2c(cc1CC(C)N)CCN2` (configuration not stated): the IC50 in assay [1] is 6 µM; in assay [2], 6 µM; against Monoamine oxidase [6], 170 µM; against Monoamine oxidase [7], 13 µM; in [12], more than 16 µM. In addition, the ED50 is more than 61 µmol/kg in the assay listed under Rattus norvegicus [3]; more than 61 µmol/kg in the assay listed under Rattus norvegicus [4]; more than 61 µmol/kg in the assay listed under Rattus norvegicus [5]; more than 61 µmol/kg in the assay with Rattus norvegicus [8]; more than 61 µmol/kg in the assay on Rattus norvegicus [9]; 49 µmol/kg in the assay with Rattus norvegicus [10]. In addition, in the assay with Rattus norvegicus [11], the ED50 was more than 61 µmol/kg. Further, the figures for the Ratio in assay [13] and in assay [14] were 13 and more than 1, respectively.
For `CCC(N)Cc1ccc2c(c1)CCN2` (configuration not stated), the IC50 was 10 µM in assay [1]; 800 µM against Monoamine oxidase [17]; 14 µM against Monoamine oxidase [18]; 0.5 µM in [2]; 3.6 µM in assay [12]. Also, the ED50 in the assay filed under Rattus norvegicus [3] was 64 µmol/kg; in the assay listed under Rattus norvegicus [4], more than 256 µmol/kg; in the assay filed under Rattus norvegicus [5], 128 µmol/kg; in the assay on Rattus norvegicus [9], 26 µmol/kg; in the assay with Rattus norvegicus [10] it was 32 µmol/kg; with Rattus norvegicus [11], 74 µmol/kg. Besides, in the assay with Rattus norvegicus [19], the median effective dose (ED50) turned out to be 11 µmol/kg. The Ratio in assay [13] is 57.
Consider `CC(N)Cc1ccc2c(c1Cl)CCN2` (configuration not stated), for which the IC50 was more than 10 µM in assay [1]; 0.32 µM in [2]; 800 µM at Monoamine oxidase [6]; 0.2 µM against Monoamine oxidase [7]; 0.34 µM in assay [12]. Further, the ED50 in the assay filed under Rattus norvegicus [3] is 59 µmol/kg; in the assay filed under Rattus norvegicus [4] it was more than 59 µmol/kg; in the assay filed under Rattus norvegicus [5] it was 59 µmol/kg; in the assay on Rattus norvegicus [8], 1.5 µmol/kg; in the assay on Rattus norvegicus [9], 2.2 µmol/kg; in the assay on Rattus norvegicus [10] it was 1.6 µmol/kg. Also, the 50% effect level in the assay on Rattus norvegicus [11] (ED50) was put at a dose of 4.1 µmol/kg. In addition, in [13], the Ratio came to 4000.
